Source: article PMC10444862, “Using macromolecular electron densities to improve the enrichment of active compounds in virtual screening” (Communications Chemistry, 2023)

Target: SARS-COV-2 3CLpro (having a P132H mutation, 3CLpro^P132H) (Severe acute respiratory syndrome coronavirus 2, UniProt P0DTD1, P3395H)
Assay type: biochemical

Row | SMILES | Inhibition Rate ([Cpd.]=40 uM)
1 | Cc1ccccc1N1C(=O)C(=Cc2ccc(N3CCOCC3)cc2)c2ccccc2C1=O [D9, Cc1ccccc1N1C(=O)C(=Cc2ccc(N3CCOCC3)cc2)c2ccccc2C1=O] | < 0.5
2 | CC1CC(C)CN(C(=O)c2ccccc2NC(=O)N2CC(O)CC(F)(F)C2)C1 (centres unmarked) [D12, CC1CC(C)CN(C(=O)c2ccccc2NC(=O)N2CC(O)CC(F)(F)C2)C1] | < 0.5
